The results in this text go back to patent US20260152480A1, “POLYCYCLIC COMPOUND AND USE THEREOF” (TYK MEDICINES , INC., priority 2022, published 2026).

In data set [1] the test system is Human pleural mesothelioma cells NCI-H226. Put plainly: Proliferation inhibition assay of human pleural mesothelioma cells NCI-H226 (CCK8). The format is cell-based. The settings on record: 72 h, 3 days incubation. From the text:
Experimental Example 1 Cell Anti-Proliferation Test
Proliferation Inhibition Assay of Human Pleural Mesothelioma Cells NCI-H226 by YAP-TEAD Inhibitor Compounds
Experimental materials and equipment: Human pleural mesothelioma cells NCI-H226 were purchased from Nanjing Cobioer Biosciences CO., LTD. RPMI-1640 medium (Bio-Channel), DMSO (dimethyl sulfoxide), CCK8 (WST-8) cell analysis kit (Beyotime), 0.25% EDTA-Tripsin (trypsin solution), 1×PBS (phosphate buffer, PH7.2), 96-well plate (Corning), fetal bovine serum (FBS), 10,000 U/mL penicillin-G/streptomycin, high-speed cryo-centrifuge (EPPENDORF 5810R), enzyme-linked immunoassay (Tecan Spark).
• A) Tumor cells were cultured in RPMI-1640 (containing 10% FBS and 100 U/mL penicillin-G/streptomycin) at 37° C., 5% CO^2 and saturated humidity until 80-90% density. • B) Removed the culture medium from 10 cm Petri dishes; • C) Rinsed the cells once with 10 ml 1×PBS; • D) Added 4 ml 0.25% EDTA-Tripsin into 37° C., 5% CO^2 incubator for trypsin digestion for 5 minutes, transferred to 15 ml centrifuge tube, centrifuged at 200 g for 5 minutes, discarded the supernatant to get cell precipitate; • E) Resuspend with 4 ml DMEM medium, count and adjust to 10,000 cells/ml. • F) Added cell suspension to 96-well plate with 100 μL per well volume and incubate overnight at 37° C., 5% CO^2 incubator.
• A) Preparation of gradient dilution solution of tested compounds: the test compounds were configured into 1 mM reservoir solution. Then 1.5 μl of the reservoir solution was dissolved in 1.5 ml of DMSO-free culture solution, and then a 3-fold serial gradient dilution was performed with 0.1% DMSO culture solution for a total of 9 concentrations, and the concentrations of the compounds after dilution were as follows: • 333.33 nM, 111.11 nM, 37.03 nM, 12.35 nM, 4.15 nM, 1.37 nM, 0.46 nM, 0.15 nM • B) After thorough mixing, 100 μL of culture compound solution was taken separately to replace the culture solution in the cell culture plate, with 4 replicate wells for each concentration; • C) The cells were transferred to the incubator and incubated for 3 days.
• A) Removed the cell culture plate and added 10 μl of CCK-8 (WST-8) solution per well in the biosafety cabinet. • B) Placed the cell culture plate back into the incubator and continued incubation for 3 hours. • C) Determined the absorbance value by selecting 450 nm on a TECAN enzyme-linked immunoassay detector.
The cell viability (% Cell Viability) was calculated using the following formula.
[formula] • A (dosing): absorbance of wells with cells, CCK8 solution and drug solution • A (blank): absorbance of wells with medium and CCK8 solution but no cells • A (0 dosing): absorbance of wells with cells, CCK8 solution and no drug solution • Cell viability: Cell proliferation viability or cytotoxicity viability IC50 values were obtained by curve fitting with GraphPad Prism 8 software.

The next data set relates to YAP-TEAD. Put plainly: Nano luciferase method to detect YAP-TEAD inhibitor activity (293T cells transfected with pGL3B-8×GTiiC-nLuc-CMV-fLuc). The format is cell-based. The settings on record: Homo sapiens, HEK-293T, transfected 293T cells, 48 hours incubation, read-out: Nano Luciferas detection (IC50). From the text:
Experimental Example 2 Nano Luciferase Method to Detect YAP-TEAD Inhibitor Activity
(1) Experimental materials and equipment: 293T cells were purchased from Nanjing Cobioer Biosciences CO., LTD. DMEM medium (high sugar, phenol red free, Bio-Channel), DMSO (dimethyl sulfoxide), Lipo6000™ transfection reagent (Beyotime), pGL3B-8×GTiiC-nLuc-CMV-fLuc plasmid, 0.25% EDTA Tripsin (trypsin solution), 1×PBS (phosphate buffer, PH7.2), 96-well white cell culture plate (PerkinElmer), Fetal Bovine Serum (FBS), 10,000 U/mL penicillin-G/streptomycin, High-speed cryo-centrifuge (EPPENDORF 5810R), 37° C. CO^2 incubator, Vi-Cell® cell counter, Envision microplate reader (PerkinElmer).
Resuscitated 293T cells were inoculated into 10 cm petri dishes and placed in a 5% CO^2 incubator at a constant temperature of 37° C. To ensure transfection efficiency, cells in the logarithmic phase (cell density of about 50%-70%) should be used.
One day before transfection, cells in logarithmic phase were digested with Trypsin-EDTA, the reaction was terminated by adding medium, and the cell suspension was made by blowing and mixing with a pipette.
The cell concentration was determined using Vi-cell and diluted to a suspension of 5*10^5 cells per milliliter. Once the cell suspension was prepared, it was gently mixed and 10 ml of liquid was added to a 10 cm petri dish. […] The cells were incubated in a 5% CO^2 incubator at 37° C. for 1 day.
Take two clean and sterile centrifuge tubes, added 750 μL of opti-MEM Medium without antibiotics and serum respectively, then added […] of plasmid (pGL3B-8×GTiiC-nLuc-CMV-fLuc) to one of the tubes and gently blown with a pipette for mixing; the other tube was added with Lipo6000 transfection reagent and gently blown with a pipette for mixing. After standing at room temperature for 5 minutes, the culture medium containing DNA was gently added to the culture medium containing Lipo6000 transfection reagent, mixed by gently inverting the centrifuge tube, and stood at room temperature for 5 minutes.
The above mixture was added evenly dropwise to a 10-cm petri dish and replaced with fresh complete medium after 6 h of incubation.
After 1 day of transfection, Trypsin EDTA was used to digest the cells, medium was added to terminate the reaction, and a cell suspension was made by blowing and mixing with a pipette.
Cell concentration was determined using Vi-cell, and diluted to a suspension of 20,000 cells per milliliter.
After the cell suspension was prepared, it was gently mixed and 100 μL was added to each well in a 96-well plate so that the density of cells to be measured was 2000 per well.
The inoculated cell culture plates were incubated in an incubator, and the compounds in concentration gradients were added after about 24 hours.
The 10 mM compound reservoir solution was diluted to 50 μM with culture medium, and 50 μM compound solution was added sequentially to the third column of the deep-well plate, and 216 μL of culture medium containing 0.5% DMSO to the fourth to eleventh columns.
Gradient dilution: 100 μL of solution was pipetted from the third column and added to the fourth column, after mixing; another 100 μL of solution was pipetted from the fourth column and added to the fifth column, and the operation was repeated until the eleventh column.
Using a multichannel pipette, 25 μL of compound solution was pipetted from the deep-well plate and added to the 96-well culture plate, and each compound was repeated four times on the 96-well plate. A concentration gradient with a maximum concentration of 10,000 nM, 1:3.16, was eventually formed on the 96-well plate.
The 96-well plate was incubated in a 5% CO^2 incubator at a constant temperature of 37° C. for 48 hours, then removed and equilibrated at room temperature for 10 minutes.
100 μL of detection reagent was added to each well and placed on a horizontal shaker at low speed for 10 minutes to fully lyse the cells. […]

The nature of data set [2]: Pharmacokinetic study of the drug, oral administration to rats (plasma, cerebrospinal fluid, brain tissue). Conditions: SD rat, 10 mg/kg, single; for AUC(0-inf) / AUC(0-t) / Cmax / MRT last / Tmax: plasma; for Kp: brain tissue (post perfusion) and plasma, read-out: B/P value; for Kp uu: in vivo, read-out: Kpuu Value. The format is in vivo. An excerpt:
Experimental Example 3 Pharmacokinetic Study of the Drug
Oral Administration Solvent: 5% DMSO+10% Solutol HS15+85% Saline
Oral administration preparation process: weighed the appropriate amount of powder, added the appropriate volume of DMSO, vortex, then added the appropriate volume of Solutol solution, vortex, and added the appropriate amount of saline, vortex ultrasound into a homogeneous and clarified state of the preparation solution.
The animal room was equipped with an air-conditioning system and well ventilated, and the indoor temperature was maintained in the range of 20-26° C., and the humidity was maintained in the range of 40%-70%. The animal room was artificially illuminated with 12 hours of light and 12 hours of dark (except for the working light that needed to be turned on for experimental operation and cleaning), and the experimental animals were free to feed and drink.
Animals were purchased and fed normally for at least 3 days, and rats that were examined by a veterinarian and had qualified physical conditions were enrolled in this experiment; each rat was labeled with a tail mark. Animals in the oral administration group were fasted overnight the day before administration, and resumed feeding and drinking freely 4 hours after administration.
Before administration, checked the state of the administered preparation, ensured the homogeneity of the preparation by vortexing, stirring or oscillating, and calculated the theoretical volume of the administered drug for each SD rat in each group according to the following formula.
Mode of administration: Oral administration to rats, fasted overnight prior to administration.

The mark [3] stands for this setting: reference compounds of WO2009081259A1.

As usually defined, the IC50 is the midpoint of a concentration-inhibition curve. The AUC(0-inf) is the area under the concentration-time curve extrapolated to infinity. What is called AUC(0-t) is exposure summed from dosing to a finite time, without extrapolation to infinity. A high value points to more exposure. The Cmax is the maximum level reached in the sampled fluid or tissue. Usually MRT last stands for the average time that molecules of a dose stay in the body. For orientation: Tmax means the time at which the peak concentration occurs.

Where two headings read alike, the source gives them in different places.

Consider `C=CC(=O)N1CCC(c2cccnc2Nc2ccc(C(F)(F)F)cc2)CC1` [Compound T1], for which the IC50 in data set [1] was no more than 100 nM. Further, the half-maximal inhibitory concentration (IC50) in the data set on YAP-TEAD was no more than 100 nM. Moreover, in data set [2], the “HL—” value amounted to 1.93 h, the AUC(0-inf) was 5260 ng·h/mL, the AUC(0-t) stood at 5250 ng·h/mL and the highest level (Cmax) was 919 ng/mL. Besides, in data set [2], the MRT last came out at 4.28 h and the Tmax was 1.33 h.
With `C=CC(=O)N1CCC(c2nccnc2Nc2ccc(C(F)(F)F)cc2)CC1` [Compound T16], the IC50 in data set [1] was no more than 100 nM. For the same compound, in the data set with YAP-TEAD, the IC50 is no more than 100 nM. Moreover, in data set [2], the “HL—” value is on record as 2.07 h, the Kp was found to be 1.41, the Kp uu came out at 0.518 and the AUC(0-inf) was found to be 17400 ng·h/mL. Further, in data set [2], the AUC(0-t) was found to be 17300 ng·h/mL, the Cmax is 2840 ng/mL, the MRT last amounted to 4.48 h and the Tmax came out at 2.67 h.
For the compound `C=CC(=O)N1CCC(c2cc(C)cnc2Nc2ccc(C(F)(F)F)cc2)CC1` [Compound T22], the IC50 in data set [1] is no more than 100 nM. The IC50 in the data set on YAP-TEAD was no more than 100 nM. In data set [2], the “HL—” value was 2.64 h, the AUC(0-inf) was 3500 ng·h/mL, the AUC(0-t) stood at 3290 ng·h/mL and the Cmax came out at 594 ng/mL. Moreover, in data set [2], the MRT last is 3.97 h and the Tmax worked out at 2 h.
`C=CC(=O)N1CCC(c2ccc(Cl)nc2Nc2ccc(C(F)(F)F)cc2)CC1` [Compound T27]: the IC50 in data set [1] lay within 100 to 1000 nM. Besides, the IC50 in the data set with YAP-TEAD was no more than 100 nM. Moreover, in data set [2], the “HL—” value was 3.03 h, the AUC(0-inf) stood at 19600 ng·h/mL, the AUC(0-t) turned out to be 19400 ng·h/mL and the Cmax worked out at 1880 ng/mL. In data set [2], the MRT last amounted to 6.89 h and the time of peak concentration (Tmax) was 3.33 h.
On to `C=CC(=O)N1CCC(c2c(Nc3ccc(C(F)(F)F)cc3)ncc3ccccc23)CC1` [Compound T37], for which, in data set [1], the IC50 is 100 to 1000 nM. Further, in the data set on YAP-TEAD, the IC50 was 100 to 1000 nM. In data set [2], the “HL—” value came to 13.97 h, the area under the curve AUC(0-inf) stood at 18000 ng·h/mL, the AUC(0-t) is 12300 ng·h/mL and the Cmax was 804 ng/mL. Besides, in data set [2], the MRT last stood at 9.85 h and the Tmax is 4.67 h.
`C=CC(=O)N1CCC(c2cc(Cl)cnc2Oc2ccc(C(F)(F)F)cc2)CC1` [Compound T40] came in with an IC50 in data set [1] of no more than 100 nM. The IC50 in the data set with YAP-TEAD is no more than 100 nM. In addition, in data set [2], the “HL—” value came to 4.40 h, the Kp was 1.88, the Kp uu stood at 0.286 and the AUC(0-inf) stood at 18000 ng·h/mL. For the same compound, in data set [2], the AUC(0-t) stood at 17500 ng·h/mL, the Cmax was found to be 1650 ng/mL, the MRT last stood at 6.75 h and the Tmax was 1.67 h.
In data set [1], `C=CC(=O)N1CCC(c2nccnc2Oc2ccc(C(F)(F)F)cc2)CC1` [Compound T58] had an IC50 of no more than 100 nM. Besides, the IC50 in the data set with YAP-TEAD is no more than 100 nM. Further, in data set [2], the “HL—” value is recorded as 2.67 h, the Kp is 2.01, the Kp uu came to 0.269 and the total exposure AUC(0-inf) amounted to 7560 ng·h/mL. For the same compound, in data set [2], the AUC(0-t) came to 7540 ng·h/mL, the highest level (Cmax) was 1180 ng/mL, the MRT last is 5.81 h and the Tmax came out at 2 h.
In the case of `FC(F)(F)c1ccc(Nc2ncccc2C2CCNCC2)cc1` [Reference compound 3, reference compound], the IC50 (in data set [1] (setting [3]); in the data set on YAP-TEAD (setting [3])) was greater than 5000 nM each time.
As to `FC(F)(F)c1ccc(Nc2ncc(Cl)cc2C2CCNCC2)cc1` [Reference compound 4, reference compound], the IC50 (in data set [1] (setting [3]); in the data set with YAP-TEAD (setting [3])) was greater than 5000 nM each time.
On to `FC(F)(F)c1ccc(Nc2ncc(C(F)(F)F)cc2C2CCNCC2)cc1` [Reference compound 5, reference compound], for which the IC50 (in data set [1] (setting [3]); in the data set on YAP-TEAD (setting [3])) was greater than 5000 nM each time.
`FC(F)(F)c1ccc(Oc2ncccc2C2CCNCC2)cc1` [Reference compound 6, reference compound]: the IC50 (in data set [1] (setting [3]); in the data set on YAP-TEAD (setting [3])) was greater than 5000 nM each time.
Take `FC(F)(F)c1ccc(Oc2ncc(Cl)cc2C2CCNCC2)cc1` [Reference compound 7, reference compound]: the IC50 (in data set [1] (setting [3]); in the data set with YAP-TEAD (setting [3])) was greater than 5000 nM in each case.
